Assays:
[1] = Viscosity and storage stability of pigmented PUD formulations; type: physicochemical; conditions: 1 month at 50° C., FIG. 5
Description: (§1) Tests were first performed to determine the coalescing agent level for pigmented and complete PUD formulations in order to achieve the optimum film formation. Complete paints were mixed with 0.7 wt. %, 1.5 wt. %, 3.0 wt. % and 5.0 wt. % of coalescing agents and applied on tin plated steel at a wet film thickness of around 250 μm, where the weight percentage was based on the pure polyurethane dispersion resins. […] Based on the observations, 3 wt. % dosage of coalescing agent was selected. Complete PUD formulations with pigments, fillers and other additives were prepared as per Table 5, and used to test and determine the coalescing properties of the caprolactam-derived solvents and other known coalescing agents.
Dispersions and emulsions tend to aggregate polyurethane particles during storage. One way to determine the stability of a polyurethane dispersion is to measure viscosity of the polyurethane dispersion over time. Viscosity is a measure of a solvent's resistance to gradual deformation by shear stress or tensile stress. […] The storage stability of the dispersions was evaluated based on variations between viscosity measurements performed on paints shortly after their preparation and after their storage for either one month at room temperature or one month at 50° C.

[2] = Minimum film forming temperature, non-pigmented resin + coalescing agent; type: physicochemical; conditions: resin with 5 wt. % coalescing agent, film thickness 350 μm
[3] = Freeze and thaw stability (ASTM D2243-95); type: physicochemical; conditions: for freeze-thaw stability and film properties (comparison): FIGS. 8 and 9
Method: Water-based emulsions and dispersions are susceptible to irreversible coagulation by freezing. Freeze and thaw stability was tested according the ASTM D2243-95 standard.
For these examples, pigmented PUD paints were subject to freeze-thaw cycles of 16 hours at −20° C. and 8 hours at room temperature and subsequently subject to visible observations. The paints were then applied on a tin plated steel plate at a thickness of approximately 200 μm for observing film properties.
In addition, the freeze-thaw stability was best for caprolactam-derived coalescing agents (NM CPL) and the blends even after subject to five cycles (see FIG. 9). In particular, the paints were visually observed after each cycle to see if there was any viscosity change, i.e., thickening of the paint. Then, the dry films of the coatings were observed visually.

[4] = Solubility of DMPA in solvents
Method: Solubility was tested between the various solvents to determine their applicability in the PUD manufacturing processes. Solubility is the amount of a substance (coalescing agent) that dissolves in a unit volume of a liquid substance (solvent) to form a saturated solution under specified conditions of temperature and pressure. For the examples, amounts of […] (DMPA) were dissolved in each solvent.

[5] = Scrub resistance of pigmented and complete PUDs (ISO 11998); type: physicochemical; conditions: for Wt. Loss: 200 wet-scrub cycles; for Loss of thickness after 200 wet-scrub cycles: calculated from weight loss
Description: as §1
Scrub resistance was tested according the ISO 11998 “Paints and Varnishes—Determination of Wet-Scrub Resistance and Cleanability of Coatings” standard. In this testing method, the paint was applied on a test panel (Leneta sheet) using a film applicator at the specific gap clearance. After drying and conditioning for four weeks at room temperature the coated panel was weighed and subject to 200 wet-scrub cycles in a scrub resistance machine. The panel was then washed, dried and weighed to determine the loss from which the mean loss in film thickness was calculated. […] For instance, N-methyl caprolactam (NM CPL), N-ethyl caprolactam (NE CPL), and blends thereof in the ratios of 1:2 and 1:1, all had less loss of thickness (2.035 μm, 1.797 μm, 1.39 μm, and 1.64 μm, respectively) as compared to NMP (2.090 μm) and NBP (2.213 μm).

[6] = Persoz hardness of pigmented and complete PUDs; type: physicochemical; conditions: pigmented, in s
Description: as §1
Persoz hardness measurements were performed on pigmented paints that were applied on tin plated steel using a doctor blade applicator at a dry film thickness (DFT) around 50 μm according to the ISO 1522 standard. […] For instance, the 28 day hardness for N-ethyl caprolactam (NE CPL) was approximately 104.6±0.5, while the 28 day hardness for NMP was approximately 108.8±2.4, and the 28 day hardness for ester alcohol and N-methyl caprolactam (NM CPL) were approximately 124.8±1 and 126.0±1, respectively, while the 28 day hardness for NBP was approximately 135.8±5.

[7] = Drying time (ASTM D1640 / ASTM D5895); type: physicochemical; conditions: 200 μm humid film; blends by ASTM D1640, single solvents by ASTM D5895
Description: as §1
The drying times for the pigmented PUD formulations were determined according to the ASTM D1640 “Standard Test Methods for Drying, Curing, or Film Formation of Organic Coatings” standard or the ASTM D5895 “Standard Test Methods for Evaluating Drying or Curing During Film Formation of Organic Coatings Using Mechanical Recorders” standard. Four stages of drying can be identified depending on the trace left by the needle on the paint surface: Stage 1—Set-to-Touch time, Stage 2—Tack-Free time, Stage 3—Dry-Hard time, and Stage IV—Dry trough time. However, Stage IV is often hard to detect.
In general, the paints were applied at a humid film thickness of 200 μm by means of a bar coater on a Leneta sheet and the needle rate was set at 60 cm/hr.
For the present examples, the drying times for the 2:1 A:B, 1:1 A:B, and 1:2 A:B solvents were determined using the ASTM D1640 standard, and the drying times for NM CPL, NE CPL, NMP, NBP, ester amide, and ester alcohol were determined using the ASTM D5895 standard.

[8] = MFFT of pigmented and complete PUDs; type: physicochemical; conditions: pigmented and complete PUD, 3 wt. % coalescing agent
Description: as §1, with “agents. The standard test for determining this temperature involves using a MFFT-BAR, as specified by standards ASTM D 2354 and ISO 2115. In general, the MFFT of a paint or coating is reduced temporarily by the use of coalescing agents.” for “agents.”

Open time (ASTM D7488) = type: physicochemical; conditions: ASTM D7488, 23±2° C., 50±5% RH, wet film 200 μm
Description: as §1
Open times were determined according to the ASTM D7488 “Test Method for Open Time of Latex” standard and the tests were performed under controlled temperature and humidity (23±2° C. and 50±5% RH). In general, the paints were applied at a wet film thickness of 200 μm on contrasting sealed charts by means of a doctor blade applicator, and “X” marks are made immediately with the wide curved end of a wooden paint brush. After a determined time internal, the brush was dipped into the paint to be tested and brushing of the X-marks was started in perpendicular direction to the initial drawdown using 10 strokes back and forth to work the paint under test into the drawdown area. This procedure is repeated after several time intervals. After their complete drying (1 week), the painted panels are observed by two different observers and the time for which the “X” marks to become visible is considered as the open time.

[9] = Gloss of pigmented and complete PUDs (ISO 2813); type: physicochemical
Description: as §1
(§2) Gloss measurements serve as an indicator of the paints surface quality. Gloss and color measurements were determined according to the ISO 2813 standard and the ISO 7724-2 standard (SCI-D65/10°), respectively.

[10] = Color of pigmented and complete PUDs (ISO 7724-2); type: physicochemical; conditions: for effect on color (yellowing): pigmented PUD
Description: as §1, §2

| Structure (SMILES) | storage stability (viscosity buildup) [1] | MFFT [2] [°C] | freeze-thaw stability and film properties (comparison) [3] | Solubility [4] | Wt. Loss [5] [g/m^2] | Loss of thickness after 200 wet-scrub cycles [5] | Persoz Hardness ([6]; 1 Day) | Persoz Hardness ([6]; 7 Days) | Persoz Hardness ([6]; 14 Days) | Persoz Hardness ([6]; 21 Days) | Drying Time [7] [min] | MFFT [8] [°C] | Open Time (Open time (ASTM D7488)) [min] | Gloss 20° [9] | Gloss 60° [9] | Gloss 85° [9] | Color (Black background) L* [10] | Color (Black background) a* [10] | Color (Black background) b* [10] | Color (White background) L* [10] | also measured |
| --- | --- | --- | --- | --- | --- | --- | --- | --- | --- | --- | --- | --- | --- | --- | --- | --- | --- | --- | --- | --- | --- |
| CCN1CCCCCC1=O [N—EtCPL, N-ethyl caprolactam] | low viscosity buildup | −1.4±0.3 | better freeze-thaw stability and film properties than NBP and ester alcohol | 20.0 g/100 g of Solvent | 3.767 | 1.797 µm | 101.0 ± 1.0 | 102.0 ± 0.7 | 101.4 ± 2.6 | 104.0 ± 2.8 | 17.4 | −2.4 | 16 | 1.3 ± 0 | 3.0 ± 0 | 24.5 ± 0.5 | 94.45 | −0.92 | 2.46 | 95.04 | Color (White background) a* [10]: −0.61; Color (White background) b* [10]: 3.24; effect on color (yellowing) [10]: no yellowing |
| CN1CCCCCC1=O [N—MeCPL, N-methyl caprolactam] | low viscosity buildup | −0.8±0.4 | better freeze-thaw stability and film properties than NBP and ester alcohol | 27.5 g/100 g of Solvent | 3.763 | 2.035 µm | 95.2 ± 1 | 101.2 ± 3 | 122.0 ± 3 | 124.0 ± 3 | 11.6 | −0.8 | 14 | 1.3 ± 0 | 3.0 ± 0 | 23.2 ± 0.2 | 94.09 | −0.97 | 2.25 | 95.07 | freeze-thaw stability: viscosity change (thickening of the paint) ([3]; cycles of 16 hours at −20° C. and 8 hours at room temperature): no such viscosity change even after five freeze-thaw cycle; Persoz Hardness ([6]; 28 Days, listed as NM CPL): ~126.0±1; Persoz Hardness ([6]; 28 Days, listed as NMCPL): 126.0 ± 1; Color (White background) a* [10]: −0.52; Color (White background) b* [10]: 3.32; effect on color (yellowing) [10]: no yellowing |

Source: patent US12024584B2, “Methods and compositions for polyurethane dispersions using caprolactam-derived solvents” (AdvanSix Resins & Chemicals LLC, priority 2017, dated 2024)
